From ChEMBL document CHEMBL3875164, “Pyrazole-based potent inhibitors of GGT1: Synthesis, biological evaluation, and molecular docking studies” (Eur J Med Chem, 2016)

What was measured:
[1] = Cytotoxicity against human MDA-MB-231 cells assessed as cell growth inhibition after 48 hrs by MTT assay method; format: functional, cell-based; conditions: MDA-MB-231, 48 h
[2] = Inhibition of recombinant FT (unknown origin) using FPP as substrate preincubated for 5 mins followed by protein addition measured over 20 mins by fluorescence assay; parameters: species or system Homo sapiens

SMILES | IC50 [1] | IC50 [2]
CSCCc1c(-c2cccnc2)nn(-c2ccc(Cl)c(Cl)c2)c1OCCCC(=O)N[C@@H](Cc1ccccc1)C(N)=O | 23 µM | 
COC(=O)[C@H](CCSC)NC(=O)c1ccc(NC[C@@H](N)CS)cc1-c1ccccc1 |  | 1.1 µM
CSCCc1c(-c2cccnc2)nn(-c2ccc(Cl)c(Cl)c2)c1OCCCNC(=O)[C@H](Cc1ccccc1)NS(C)(=O)=O | > 50 µM | > 100 µM
CSCCc1c(-c2cccnc2)nn(-c2ccc(Cl)c(Cl)c2)c1OCCCNC(=O)[C@H](Cc1ccc(F)cc1)NS(C)(=O)=O | > 50 µM | > 100 µM
COc1ccc(C[C@H](NS(C)(=O)=O)C(=O)NCCCOc2c(CCSC)c(-c3cccnc3)nn2-c2ccc(Cl)c(Cl)c2)cc1 | > 50 µM | > 100 µM
CSCCc1c(-c2cccnc2)nn(-c2ccc(Cl)c(Cl)c2)c1OCCCNC(=O)[C@H](Cc1cccnc1)NC(C)=O | 52.3 µM | > 100 µM
CSCCc1c(-c2cccnc2)nn(-c2ccc(Cl)c(Cl)c2)c1OCCCNC(=O)[C@H](Cc1ccncc1)NC(C)=O | 34.9 µM | > 100 µM
CSCCc1c(-c2cccnc2)nn(-c2ccc(Cl)c(Cl)c2)c1OCCCNC(=O)[C@H](Cc1cccnc1)NS(C)(=O)=O | > 50 µM | > 100 µM
COc1ccc(C[C@H](NC(=O)OC(C)(C)C)C(=O)NCCCOc2c(CCSC)c(-c3cccnc3)nn2-c2ccc(Cl)c(Cl)c2)cc1 | > 50 µM | > 100 µM
CSCCc1c(-c2cccnc2)nn(-c2ccc(Cl)c(Cl)c2)c1OCCCNC(=O)[C@H](Cc1ccccc1)NC(C)=O | 15.4 µM | > 100 µM
CSCCc1c(-c2cccnc2)nn(-c2ccc(Cl)c(Cl)c2)c1OCCCNC(=O)[C@H](Cc1ccncc1)NS(C)(=O)=O | 26.5 µM | > 100 µM
CSCCc1c(-c2cccnc2)nn(-c2ccc(Cl)c(Cl)c2)c1OCCCNC(=O)[C@H](Cc1ccc(F)cc1)NC(C)=O | 13.2 µM | > 100 µM
COc1ccc(C[C@H](NC(=O)CCCOc2c(CCSC)c(-c3cccnc3)nn2-c2ccc(Cl)c(Cl)c2)C(N)=O)cc1 | 33.2 µM | > 100 µM
CSCCc1c(-c2cccnc2)nn(-c2ccc(Cl)c(Cl)c2)c1OCCCC(=O)N[C@@H](Cc1ccc(F)cc1)C(N)=O | 7.6 µM | > 100 µM
CSCCc1c(-c2cccnc2)nn(-c2ccc(Cl)c(Cl)c2)c1OCCCC(=O)N[C@@H](Cc1cccnc1)C(N)=O | 29.4 µM | > 100 µM
COc1ccc(C[C@H](NC(C)=O)C(=O)NCCCOc2c(CCSC)c(-c3cccnc3)nn2-c2ccc(Cl)c(Cl)c2)cc1 | 14.8 µM | > 100 µM
CSCCc1c(-c2cccnc2)nn(-c2ccc(Cl)c(Cl)c2)c1OCCCC(=O)N[C@@H](Cc1ccncc1)C(N)=O | > 50 µM | > 100 µM
